The values below are quoted from earlier work in patent US20120258202A1, “Compositions and Methods for an Appetite Suppressant and a Nutrient Absorption Blocker with Treatment To Raise Metabolic Rate” (priority 2011, published 2012).

For series [1] the following is noted: after ORLISTAT was stopped.
For series [2] the following is noted: laboratory animals.
For series [3] the following is noted: people taking sibutramine; control 10.0%.

SMILES strings stand for the structures.

On to `CNCCC(Oc1ccc(C(F)(F)F)cc1)c1ccccc1` (stereo not drawn) [fluoxetine, Fluoxetine], for which the “interruption of the treatment due to anxiety, insomnia, and nervousness (each)” value (in vivo) was 1-2%. Further, the anorexia (prescribing information, placebo 3%) is given as 10%. Also, for the setting “prescribing information, placebo 5%”, the somnolence is listed as 12%. Besides, the anxiety (prescribing information, placebo 6%) is recorded as 12%. Under “prescribing information, placebo 9%”, the nausea is reported as 22%. Further, the insomnia (prescribing information, placebo 10%) is recorded as 19%.
As to `CCCCCCCCCCC[C@@H](C[C@@H]1OC(=O)[C@H]1CCCCCC)OC(=O)[C@H](CC(C)C)NC=O` [orlistat, tetrahydrolipstatin], the “weight regained after drug was stopped, of the weight lost” value in series [1] is “up to 35%”.
With `CN[C@H]1CC[C@@H](c2ccc(Cl)c(Cl)c2)c2ccccc21` [sertraline, Sertraline], the body weight result in series [2] is on record as “resulted in weight loss”.
As to `CC(C)CC(N(C)C)C1(c2ccc(Cl)cc2)CCC1` (stereo not drawn) [sibutramine, Sibutramine], the cardiovascular events in series [3] is 11.4%.
